Measurements taken from ChEMBL document CHEMBL4627352, “New acrylamide-sulfisoxazole conjugates as dihydropteroate synthase inhibitors” (Bioorg Med Chem, 2020).
Values after ≈ are worked out from the molar mass of the structure shown. Active and inactive are the calls of the source. The calls are words filed in the database; no cut-off is given here.

Assays:
[1] = tested on: Staphylococcus epidermidis; test: Potency index, ratio of sulfisoxazole MIC to compound MIC for Staphylococcus epidermidis assessed as inhibition of DHPS-mediated bacterial growth incubated for 24 hrs by microbroth dilution method
[2] = tested on: Streptococcus pneumoniae; test: Inhibition of DHPS in Streptococcus pneumoniae assessed as antibacterial activity by measuring inhibition of bacterial growth incubated for 24 hrs by microbroth dilution method
[3] = tested on: Aspergillus fumigatus; test: Potency index, ratio of sulfisoxazole MIC to compound MIC for Aspergillus fumigatus assessed as inhibition of DHPS-mediated fungal growth incubated for 48 hrs by microbroth dilution method
[4] = tested on: Geotrichum candidum; test: Inhibition of DHPS in Geotrichum candidum assessed as antifungal activity by measuring inhibition zone at 5 mg/mL incubated for 48 hrs by disk diffusion method
[5] = tested on: Bacillus subtilis; test: Inhibition of DHPS in Bacillus subtilis assessed as antibacterial activity by measuring inhibition zone at 5 mg/mL incubated for 24 hrs by disk diffusion method
[6] = tested on: Syncephalastrum racemosum; test: Potency index, ratio of amphotericin B MIC to compound MIC for Syncephalastrum racemosum assessed as inhibition of DHPS-mediated fungal growth incubated for 48 hrs by microbroth dilution method
[7] = tested on: Bacillus subtilis; test: Potency index, ratio of sulfisoxazole MIC to compound MIC for Bacillus subtilis assessed as inhibition of DHPS-mediated bacterial growth incubated for 24 hrs by microbroth dilution method
[8] = tested on: Streptococcus pneumoniae; test: Inhibition of DHPS in Streptococcus pneumoniae assessed as antibacterial activity by measuring inhibition zone at 5 mg/mL incubated for 24 hrs by disk diffusion method
[9] = tested on: Klebsiella pneumoniae; test: Inhibition of DHPS in Klebsiella pneumoniae assessed as antibacterial activity by measuring inhibition zone at 5 mg/mL incubated for 24 hrs by disk diffusion method
[10] = tested on: Escherichia coli; test: Inhibition of DHPS in Escherichia coli assessed as antibacterial activity by measuring inhibition of bacterial growth incubated for 24 hrs by microbroth dilution method
[11] = tested on: Escherichia coli; test: Inhibition of DHPS in Escherichia coli assessed as antibacterial activity by measuring inhibition zone at 5 mg/mL incubated for 24 hrs by disk diffusion method
[12] = tested on: Proteus vulgaris; test: Inhibition of DHPS in Proteus vulgaris assessed as antibacterial activity by measuring inhibition of bacterial growth incubated for 24 hrs by microbroth dilution method
[13] = tested on: Aspergillus fumigatus; test: Inhibition of DHPS in Aspergillus fumigatus assessed as antifungal activity by measuring inhibition zone at 5 mg/mL incubated for 48 hrs by disk diffusion method
[14] = tested on: Proteus vulgaris; test: Inhibition of DHPS in Proteus vulgaris assessed as antibacterial activity by measuring inhibition zone at 5 mg/mL incubated for 24 hrs by disk diffusion method
[15] = tested on: Staphylococcus epidermidis; test: Inhibition of DHPS in Staphylococcus epidermidis assessed as antibacterial activity by measuring inhibition zone at 5 mg/mL incubated for 24 hrs by disk diffusion method
[16] = tested on: Escherichia coli ATCC 25922; test: Inhibition of DHPS in Escherichia coli ATCC 25922 assessed as inhibition of bacterial growth incubated for 24 hrs in presence of folate dependent metabolite, methionine by microbroth dilution method
[17] = tested on: Bacillus subtilis; test: Inhibition of DHPS in Bacillus subtilis assessed as antibacterial activity by measuring inhibition of bacterial growth incubated for 24 hrs by microbroth dilution method
[18] = tested on: Geotrichum candidum; test: Potency index, ratio of sulfisoxazole MIC to compound MIC for Geotrichum candidum assessed as inhibition of DHPS-mediated fungal growth incubated for 48 hrs by microbroth dilution method
[19] = tested on: Klebsiella pneumoniae; test: Inhibition of DHPS in Klebsiella pneumoniae assessed as antibacterial activity by measuring inhibition of bacterial growth incubated for 24 hrs by microbroth dilution method
[20] = tested on: Staphylococcus epidermidis; test: Inhibition of DHPS in Staphylococcus epidermidis assessed as antibacterial activity by measuring inhibition of bacterial growth incubated for 24 hrs by microbroth dilution method
[21] = tested on: Geotrichum candidum; test: Inhibition of DHPS in Geotrichum candidum assessed as antifungal activity by measuring inhibition of fungal growth incubated for 48 hrs by microbroth dilution method
[22] = tested on: Klebsiella pneumoniae; test: Potency index, ratio of sulfisoxazole MIC to compound MIC for Klebsiella pneumoniae assessed as inhibition of DHPS-mediated bacterial growth incubated for 24 hrs by microbroth dilution method
[23] = tested on: Aspergillus fumigatus; test: Inhibition of DHPS in Aspergillus fumigatus assessed as antifungal activity by measuring inhibition of fungal growth incubated for 48 hrs by microbroth dilution method
[24] = tested on: Syncephalastrum racemosum; test: Inhibition of DHPS in Syncephalastrum racemosum assessed as antifungal activity by measuring inhibition zone at 5 mg/mL incubated for 48 hrs by disk diffusion method
[25] = tested on: Escherichia coli ATCC 25922; test: Inhibition of DHPS in Escherichia coli ATCC 25922 assessed as inhibition of bacterial growth incubated for 24 hrs in presence of folate precursor, pABA by microbroth dilution method
[26] = tested on: Syncephalastrum racemosum; test: Inhibition of DHPS in Syncephalastrum racemosum assessed as antifungal activity by measuring inhibition of fungal growth incubated for 48 hrs by microbroth dilution method
[27] = tested on: Streptococcus pneumoniae; test: Potency index, ratio of sulfisoxazole MIC to compound MIC for Streptococcus pneumoniae assessed as inhibition of DHPS-mediated bacterial growth incubated for 24 hrs by microbroth dilution method
[28] = tested on: Escherichia coli; test: Potency index, ratio of sulfisoxazole MIC to compound MIC for Escherichia coli assessed as inhibition of DHPS-mediated bacterial growth incubated for 24 hrs by microbroth dilution method

C=CCN/C(S)=C(/C#N)C(=O)Nc1ccc(S(=O)(=O)Nc2onc(C)c2C)cc1
Ratio [1]: 2 | MIC [2]: 0.98 µg/mL (≈ 2.26 µM) | Ratio [3]: 7 | inhibition zone (IZ) [4]: 25.2 mm | inhibition zone (IZ) [5]: 23.8 mm | Ratio [6]: 2 | Ratio [7]: 2 | inhibition zone (IZ) [8]: 21.7 mm | inhibition zone (IZ) [9]: 24.2 mm | MIC [10]: 1.95 µg/mL (≈ 4.5 µM) | inhibition zone (IZ) [11]: 21.2 mm | MIC [12]: 3.9 µg/mL (≈ 9 µM) | inhibition zone (IZ) [13]: 22.3 mm | inhibition zone (IZ) [14]: 20.1 mm | inhibition zone (IZ) [15]: 20.1 mm | inhibition [16]: inactive | MIC [17]: 0.49 µg/mL (≈ 1.13 µM) | Ratio [18]: 6 | MIC [19]: 0.49 µg/mL (≈ 1.13 µM) | MIC [20]: 3.9 µg/mL (≈ 9 µM) | MIC [21]: 0.24 µg/mL (≈ 0.554 µM) | Ratio [22]: 4 | MIC [23]: 0.49 µg/mL (≈ 1.13 µM) | inhibition zone (IZ) [24]: 20.4 mm | inhibition [25]: inactive | MIC [26]: 3.9 µg/mL (≈ 9 µM)

CN/C(S[C@@H]1O[C@H](COC(C)=O)[C@@H](OC(C)=O)[C@H](OC(C)=O)[C@H]1OC(C)=O)=C(/C#N)C(=O)Nc1ccc(S(=O)(=O)Nc2onc(C)c2C)cc1
Ratio [1]: 2 | MIC [2]: 0.98 µg/mL (≈ 1.33 µM) | Ratio [3]: 4 to 6 | inhibition zone (IZ) [4]: 21.2 mm | inhibition zone (IZ) [5]: 23.4 mm | Ratio [6]: 1 | inhibition zone (IZ) [8]: 22.2 mm | inhibition zone (IZ) [9]: 22.1 mm | MIC [10]: 3.9 µg/mL (≈ 5.29 µM) | inhibition zone (IZ) [11]: 20.2 mm | MIC [12]: 7.81 µg/mL (≈ 10.6 µM) | inhibition zone (IZ) [13]: 19.3 mm | inhibition zone (IZ) [14]: 17.8 mm | inhibition zone (IZ) [15]: 20.4 mm | inhibition [16]: inactive | MIC [17]: 0.98 µg/mL (≈ 1.33 µM) | Ratio [18]: 3 to 5 | MIC [19]: 0.98 µg/mL (≈ 1.33 µM) | MIC [20]: 3.9 µg/mL (≈ 5.29 µM) | MIC [21]: 1.95 µg/mL (≈ 2.64 µM) | Ratio [27]: 2 | Ratio [28]: 4 | Ratio [22]: 8 | MIC [23]: 3.9 µg/mL (≈ 5.29 µM) | inhibition zone (IZ) [24]: 19.9 mm | inhibition [25]: inactive | MIC [26]: 3.9 µg/mL (≈ 5.29 µM)
